The source of these data is patent US20260022142A1, “MACROCYCLIC IMMUNOMODULATORS” (Bristol-Myers Squibb Company, priority 2022, published 2026).

Molecules are shown by their SMILES. Numbered stars: 1 amine (or outer) side, 2 acyl side, 3 side chain; on linkers, the order of the positions; unused ones are H or OH. Bridge positions count the residues as written; N and C are the ends. Square brackets hold non-standard residues; d marks the D form. Peptide text beside a SMILES is read from it. * marks the point of attachment. ξ: configuration not given here. Phe(4-COOH) = N[C@@H](Cc1ccc(C(=O)O)cc1)C(=O)O; X9 = O=C([C@H](Cc1cc(F)c(F)cc1F)N[*:1])[*:2]; Bip = N[C@@H](Cc1ccc(-c2ccccc2)cc1)C(=O)O; Morpholine(3S-CO) = O=C(O)[C@@H]1COCCN1; Pip(4-aza) = O=C(O)[C@@H]1CNCCN1; 4Pal = N[C@@H](Cc1ccncc1)C(=O)O; X1 = O=C(CN1CCN([*:1])CC1)[*:2]; Cha = N[C@@H](CC1CCCCC1)C(=O)O; Cit = NC(=O)NCCC[C@H](N)C(=O)O; Thr(3ξ) = CC(O)[C@H](N)C(=O)O; 3Abz = Nc1cccc(C(=O)O)c1; 4Abz = Nc1ccc(C(=O)O)cc1; Carboxymethyl = O=C(O)C*; Orn = NCCC[C@H](N)C(=O)O; Pra = C#CC[C@H](N)C(=O)O; Aun = NCCCCCCCCCCC(=O)O; Dab = NCC[C@H](N)C(=O)O; Dap = NC[C@H](N)C(=O)O; AEEA = NCCOCCOCC(=O)O

T1 sequence (Q15116 25-288): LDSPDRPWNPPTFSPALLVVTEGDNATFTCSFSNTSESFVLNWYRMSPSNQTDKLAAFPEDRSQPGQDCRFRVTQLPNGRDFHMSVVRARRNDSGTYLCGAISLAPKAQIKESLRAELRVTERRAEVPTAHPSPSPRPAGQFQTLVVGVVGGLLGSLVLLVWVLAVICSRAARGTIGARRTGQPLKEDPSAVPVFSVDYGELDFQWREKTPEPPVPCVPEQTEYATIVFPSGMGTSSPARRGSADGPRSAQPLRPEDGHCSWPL

The first assay has as its target T1, PD-1/PD-L1 interaction (PE-labeled human PD-L1-Ig binding to Jurkat cell line over-expressing human PD-1) (Homo sapiens, UniProt Q15116).
T1 construct: expressed in transfected cells; host or cells: Jurkat
The assay is described as follows: Jurkat-PD-1 Cell Binding High-Content Screening Assay (CBA). The format is cell-based. The following applies: Jurkat cell line over-expressing human PD-1; PE-labeled PD-L1-Ig 20 nM final; read-out: Jurkat hPD1-PDL1 IC50. In a few lines:
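Jurkat cells over-expressing human PD-1 (8×10^3 per well, DMEM/10% FCS) preincubated with compound 2 h at 37° C, then PE-labeled human PD-L1-Ig (20 nM final) added for 1 h. Cells fixed with paraformaldehyde, Hoechst-stained, and bound fluorescence quantified by high-content imaging.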
For orientation: IC50 means the concentration needed to halve the response being measured. With `C#CC[C@H](NC(=O)COCCOCCNC(=O)[C@@H]1CSCC(=O)N[C@@H](Cc2ccncc2)C(=O)N[C@@H](Cc2ccc(OCC(=O)O)cc2)C(=O)N[C@@H](CC(=O)O)C(=O)N[C@@H](Cc2c[nH]c3ccccc23)C(=O)N[C@@H](C(C)C)C(=O)N[C@@H](Cc2ccc(-c3ccccc3)cc2)C(=O)N[C@@H]([C@@H](C)CC)C(=O)N[C@@H](CCCN)C(=O)N[C@H](CC(C)C)C(=O)N[C@@H](CCN)C(=O)N[C@@H](CC(C)C)C(=O)N[C@@H](C(C)C)C(=O)N[C@@H]([C@@H](C)O)C(=O)N1)C(=O)N[C@@H](CCCCN)C(=O)NCCCCCCCCCCC(=O)O` [Compound 1214] ({CH2CO}-[4Pal]Y(Carboxymethyl)DWV[Bip]I[Orn][dL][Dab]LVTC[AEEA][Pra]K[Aun]-OH; thioether N-14), the IC50 stood at 13.7 nM. The same measure, in the same setting: as for `C#CC[C@H](NC(=O)COCCOCCNC(=O)[C@@H]1CSCC(=O)N[C@@H](Cc2ccncc2)C(=O)N[C@@H](Cc2ccc(OCC(=O)O)cc2)C(=O)N[C@@H](CC(=O)O)C(=O)N[C@@H](Cc2c[nH]c3ccccc23)C(=O)N[C@@H](C(C)C)C(=O)N[C@@H](Cc2ccc(-c3ccccc3)cc2)C(=O)N[C@@H]([C@@H](C)CC)C(=O)N[C@@H](CCCN)C(=O)N[C@H](CC(C)C)C(=O)N[C@@H](CCN)C(=O)N[C@@H](CC(C)C)C(=O)N[C@@H](C(C)C)C(=O)N[C@@H]([C@@H](C)O)C(=O)N1)C(=O)N[C@@H](CCCNC(=N)N)C(=O)NCCCCCCCCCCC(=O)O` [Compound 1215] ({CH2CO}-[4Pal]Y(Carboxymethyl)DWV[Bip]I[Orn][dL][Dab]LVTC[AEEA][Pra]R[Aun]-OH; thioether N-14), the figure is 13.8 nM; as for `C#CC[C@H](NC(=O)COCCOCCNC(=O)[C@@H]1CSCC(=O)N[C@@H](Cc2ccncc2)C(=O)N[C@@H](Cc2ccc(OCC(=O)O)cc2)C(=O)N[C@@H](CC(=O)O)C(=O)N[C@@H](Cc2c[nH]c3ccccc23)C(=O)N[C@@H](C(C)C)C(=O)N[C@@H](Cc2ccc(-c3ccccc3)cc2)C(=O)N[C@@H]([C@@H](C)CC)C(=O)N[C@@H](CCCN)C(=O)N[C@H](CC(C)C)C(=O)N[C@@H](CCN)C(=O)N[C@@H](CC(C)C)C(=O)N[C@@H](C(C)C)C(=O)N[C@@H]([C@@H](C)O)C(=O)N1)C(=O)N[C@@H](Cc1cnc[nH]1)C(=O)NCCCCCCCCCCC(=O)O` [Compound 1216] ({CH2CO}-[4Pal]Y(Carboxymethyl)DWV[Bip]I[Orn][dL][Dab]LVTC[AEEA][Pra]H[Aun]-OH; thioether N-14), 16.5 nM; as for `CC(C)C[C@@H]1NC(=O)[C@H](Cc2c[nH]c3ccccc23)NC(=O)[C@H](CC(=O)O)NC(=O)[C@H](Cc2ccncc2)NC(=O)[C@H](Cc2ccc(OCC(=O)O)cc2)NC(=O)CSC[C@@H](C(=O)N2CCNC[C@H]2C(=O)NCCCCCCCCCCC(=O)O)NC(=O)[C@H](C(C)O)NC(=O)[C@H](C(C)C)NC(=O)[C@H](CC2CCCCC2)NC(=O)[C@H](CCN)NC(=O)[C@@H](CC(C)C)NC(=O)[C@H](CCCN)NC(=O)[C@H](C(C)C)NC(=O)[C@H](Cc2ccc(-c3ccccc3)cc2)NC1=O` (stereo partly drawn) [Compound 1223] ({CH2CO}-Y(Carboxymethyl)[4Pal]DWL[Bip]V[Orn][dL][Dab][Cha]V[Thr(3ξ)]C[Pip(4-aza)][Aun]-OH; thioether N-14), 135 nM. Still for that read-out and setting: for `CC(C)C[C@H]1NC(=O)[C@H](CCCN)NC(=O)[C@H](Cc2ccc(O)cc2)NC(=O)[C@H](Cc2ccc(-c3ccccc3)cc2)NC(=O)[C@H](Cc2ccc(OCC(=O)O)cc2)NC(=O)[C@H](Cc2cc(F)c(F)cc2F)NC(=O)[C@H](CC(=O)O)NC(=O)[C@H](Cc2ccc(OCC(=O)O)cc2)NC(=O)[C@H](CN)NC(=O)CSC[C@@H](C(=O)N[C@@H](CCN)C(=O)NCCOCCOCC(=O)NCCCCCCCCCCC(=O)O)NC(=O)[C@H](CCCN)NC(=O)[C@H](C(C)C)NC(=O)[C@H](CC2CCCCC2)NC(=O)[C@H](CCN)NC1=O` [Compound 1224] ({CH2CO}-[Dap]Y(Carboxymethyl)D[X9]Y(Carboxymethyl)[Bip]Y[Orn][dL][Dab][Cha]V[Orn]C[Dab][AEEA][Aun]-OH; thioether N-14) the value was 141 nM.

Turning to `CC(C)C[C@@H]1NC(=O)[C@H](Cc2c[nH]c3ccccc23)NC(=O)[C@H](CC(=O)O)NC(=O)[C@H](Cc2ccncc2)NC(=O)[C@H](Cc2ccc(OCC(=O)O)cc2)NC(=O)CSC[C@@H](C(=O)N2CCN(CC(=O)NCCCCCCCCCCC(=O)O)CC2)NC(=O)[C@H](C(C)O)NC(=O)[C@H](C(C)C)NC(=O)[C@H](CC2CCCCC2)NC(=O)[C@H](CCN)NC(=O)[C@@H](CC(C)C)NC(=O)[C@H](CCCN)NC(=O)[C@H](C(C)C)NC(=O)[C@H](Cc2ccc(-c3ccccc3)cc2)NC1=O` (stereo partly drawn) [Compound 1225] ({CH2CO}-Y(Carboxymethyl)[4Pal]DWL[Bip]V[Orn][dL][Dab][Cha]V[Thr(3ξ)]C[X1][Aun]-OH; thioether N-14), the IC50 amounted to 171 nM. Consider `CC(C)C[C@@H]1NC(=O)[C@H](Cc2c[nH]c3ccccc23)NC(=O)[C@H](CC(=O)O)NC(=O)[C@H](Cc2ccncc2)NC(=O)[C@H](Cc2ccc(OCC(=O)O)cc2)NC(=O)CSC[C@@H](C(=O)Nc2ccc(C(=O)NCCCCCCCCCCC(=O)O)cc2)NC(=O)[C@H](CCCN)NC(=O)[C@H](C(C)C)NC(=O)[C@H](CC2CCCCC2)NC(=O)[C@H](CCN)NC(=O)[C@@H](CC(C)C)NC(=O)[C@H](CCCN)NC(=O)[C@H](C(C)C)NC(=O)[C@H](Cc2ccc(-c3ccccc3)cc2)NC1=O` [Compound 1226] ({CH2CO}-Y(Carboxymethyl)[4Pal]DWL[Bip]V[Orn][dL][Dab][Cha]V[Orn]C[4Abz][Aun]-OH; thioether N-14), for which the IC50 worked out at 277 nM. Turning to `CC(C)C[C@@H]1NC(=O)[C@H](Cc2c[nH]c3ccccc23)NC(=O)[C@H](CC(=O)O)NC(=O)[C@H](Cc2ccncc2)NC(=O)[C@H](Cc2ccc(OCC(=O)O)cc2)NC(=O)CSC[C@@H](C(=O)N2CCOC[C@H]2C(=O)NCCCCCCCCCCC(=O)O)NC(=O)[C@H](CCCNC(N)=O)NC(=O)[C@H](C(C)C)NC(=O)[C@H](CC2CCCCC2)NC(=O)[C@H](CCN)NC(=O)[C@@H](CC(C)C)NC(=O)[C@H](CCCN)NC(=O)[C@H](C(C)C)NC(=O)[C@H](Cc2ccc(-c3ccccc3)cc2)NC1=O` [Compound 1227] ({CH2CO}-Y(Carboxymethyl)[4Pal]DWL[Bip]V[Orn][dL][Dab][Cha]V[Cit]C[Morpholine(3S-CO)][Aun]-OH; thioether N-14), the IC50 was 304 nM. Still for that read-out and setting: as for `CC(C)C[C@@H]1NC(=O)[C@H](Cc2c[nH]c3ccccc23)NC(=O)[C@H](CC(=O)O)NC(=O)[C@H](Cc2ccncc2)NC(=O)[C@H](Cc2ccc(OCC(=O)O)cc2)NC(=O)CSC[C@@H](C(=O)Nc2cccc(C(=O)NCCCCCCCCCCC(=O)O)c2)NC(=O)[C@H](CCN)NC(=O)[C@H](C(C)C)NC(=O)[C@H](CC2CCCCC2)NC(=O)[C@H](CCN)NC(=O)[C@@H](CC(C)C)NC(=O)[C@H](CCCN)NC(=O)[C@H](C(C)C)NC(=O)[C@H](Cc2ccc(-c3ccccc3)cc2)NC1=O` [Compound 1228] ({CH2CO}-Y(Carboxymethyl)[4Pal]DWL[Bip]V[Orn][dL][Dab][Cha]V[Dab]C[3Abz][Aun]-OH; thioether N-14), the figure is 307 nM; as for `CC(C)C[C@@H]1NC(=O)[C@H](Cc2c[nH]c3ccccc23)NC(=O)[C@H](CC(=O)O)NC(=O)[C@H](Cc2ccncc2)NC(=O)[C@H](Cc2ccc(OCC(=O)O)cc2)NC(=O)CSC[C@@H](C(=O)Nc2ccc(C(=O)NCCCCCCCCCCC(=O)O)cc2)NC(=O)[C@H](CCN)NC(=O)[C@H](C(C)C)NC(=O)[C@H](CC2CCCCC2)NC(=O)[C@H](CCN)NC(=O)[C@@H](CC(C)C)NC(=O)[C@H](CCCN)NC(=O)[C@H](C(C)C)NC(=O)[C@H](Cc2ccc(-c3ccccc3)cc2)NC1=O` [Compound 1229] ({CH2CO}-Y(Carboxymethyl)[4Pal]DWL[Bip]V[Orn][dL][Dab][Cha]V[Dab]C[4Abz][Aun]-OH; thioether N-14), 518 nM; as for `CC(C)C[C@@H]1NC(=O)[C@H](Cc2c[nH]c3ccccc23)NC(=O)[C@H](CC(=O)O)NC(=O)[C@H](Cc2ccc(C(=O)O)cc2)NC(=O)[C@H](Cc2ccc(OCC(=O)O)cc2)NC(=O)CSC[C@@H](C(=O)N[C@@H](CN)C(=O)NCCCCCCCCCCC(=O)O)NC(=O)[C@H](CCCNC(N)=O)NC(=O)[C@H](C(C)C)NC(=O)[C@H](CC2CCCCC2)NC(=O)[C@H](CCN)NC(=O)[C@@H](CC(C)C)NC(=O)[C@H](CCCN)NC(=O)[C@H](Cc2ccc(O)cc2)NC(=O)[C@H](Cc2ccc(-c3ccccc3)cc2)NC1=O` [Compound 1233] ({CH2CO}-Y(Carboxymethyl)[Phe(4-COOH)]DWL[Bip]Y[Orn][dL][Dab][Cha]V[Cit]C[Dap][Aun]-OH; thioether N-14), 22.1 nM.

With `CC(C)C[C@@H]1NC(=O)[C@H](Cc2c[nH]c3ccccc23)NC(=O)[C@H](CC(=O)O)NC(=O)[C@H](Cc2ccc(C(=O)O)cc2)NC(=O)[C@H](Cc2ccc(OCC(=O)O)cc2)NC(=O)CSC[C@@H](C(=O)N[C@@H](CCN)C(=O)NCCCCCCCCCCC(=O)O)NC(=O)[C@H](CCCNC(N)=O)NC(=O)[C@H](C(C)C)NC(=O)[C@H](CC2CCCCC2)NC(=O)[C@H](CCN)NC(=O)[C@@H](CC(C)C)NC(=O)[C@H](CCCN)NC(=O)[C@H](Cc2ccc(O)cc2)NC(=O)[C@H](Cc2ccc(-c3ccccc3)cc2)NC1=O` [Compound 1234] ({CH2CO}-Y(Carboxymethyl)[Phe(4-COOH)]DWL[Bip]Y[Orn][dL][Dab][Cha]V[Cit]C[Dab][Aun]-OH; thioether N-14), the IC50 was determined as 39.8 nM.

The assay is the same for the next values; noted with them: Jurkat hPD1-PDL1 IC50, Jurkat cell line over-expressing human PD-1; PE-labeled PD-L1-Ig 20 nM final.
Turning to `CC(C)C[C@@H]1NC(=O)[C@H](Cc2c[nH]c3ccccc23)NC(=O)[C@H](CC(=O)O)NC(=O)[C@H](Cc2ccncc2)NC(=O)[C@H](Cc2ccc(OCC(=O)O)cc2)NC(=O)CSC[C@@H](C(=O)Nc2ccc(C(=O)NCCCCCCCCCCC(=O)O)cc2)NC(=O)[C@H](CCCNC(=N)N)NC(=O)[C@H](C(C)C)NC(=O)[C@H](CC2CCCCC2)NC(=O)[C@H](CCN)NC(=O)[C@@H](CC(C)C)NC(=O)[C@H](CCCN)NC(=O)[C@H](C(C)C)NC(=O)[C@H](Cc2ccc(-c3ccccc3)cc2)NC1=O` [Compound 1230] ({CH2CO}-Y(Carboxymethyl)[4Pal]DWL[Bip]V[Orn][dL][Dab][Cha]VRC[4Abz][Aun]-OH; thioether N-14), the IC50 stood at 537 nM.
